The source of these data is patent publication US11414429B2, “Compound or pharmaceutically acceptable salt thereof” (RIKEN, priority 2016, dated 2022).

Like-named read-outs stand apart in the source and are kept apart here.

The target of one experiment is T1, tankyrase 1 (TNKS 1) (Homo sapiens, UniProt O95271).
T1 construct: 1,024-1,327aa; made in house; host or cells: cell-free protein synthesis system
The experiment can be described thus: Tankyrase inhibitory activity test (ELISA, self-polyADP ribosylation), tankyrase 1. The class given is biochemical. The following applies: self-polyADP ribosylation. In a few lines: (§1)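 IC50 was fitted to residual self-polyADP-ribosylation activity, detected by HRP-streptavidin chemiluminescence. Plate-bound Flag fusions (TNKS1 1,024-1,327aa SAM+PARP; TNKS2 613-1,116aa ANK5+SAM+PARP, cell-free synthesized) saw compound for 10 min at room temperature in 50 mM Tris-HCl pH 8.0, 4 mM MgCl2, 0.2 mM DTT. Reaction with 225 μM NAD/25 μM 6-biotin-17-NAD solution ran 45 min at 30 °C.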

For experiment [1], the system named is human colorectal cancer cell line, COLO-320DM. The experiment can be described thus: Cell proliferation inhibitory activity test (Celltiter-Glo Luminescent Cell Viability Assay). The settings on record: COLO-320DM cells, 96 hours. The class given is cell-based. In short, it runs like this:
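GI50 is taken as the concentration halving cell growth versus 1% DMSO control, measured by ATP luminescence. Compound exposure lasted 96 h at 37° C. under 5% CO2, after overnight seeding in RPMI-1640 with 10% FBS and 2 mM glutamine.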

The next experiment deals with T2, tankyrase 2 (TNKS 2) (Homo sapiens, UniProt Q9H2K2).
T2 construct: 613-1, 116aa; made in house; host or cells: cell-free protein synthesis system
The experiment can be described thus: Tankyrase inhibitory activity test (ELISA, self-polyADP ribosylation), tankyrase 2. The format is biochemical. The settings on record: self-polyADP ribosylation. In a few lines:
as §1
(An ELISA detects its analyte on a solid surface through an enzyme-linked reagent.)

The mark [2] stands for this setting: ELISA, class symbols, read-out: TNKS1 (inhibitory activity against tankyrase 1, IC50 value).
Where [3] appears, read: class symbols, read-out: COLO-320 DM (cell proliferation inhibitory activity, GI50 value).
Setting [4] is: ELISA, class symbols, read-out: TNKS2 (inhibitory activity against tankyrase 2, IC50 value).
Setting [5] is: tankyrase 1, ELISA, read-out: TNKS1 inhibitory activity (IC50 class).
Where [6] appears, read: read-out: COLO-320 DM cell proliferation inhibitory activity (GI50 class).
Setting [7] is: tankyrase 2, ELISA, read-out: TNKS2 inhibitory activity (IC50 class).

T2 sequence (Q9H2K2 613-1166): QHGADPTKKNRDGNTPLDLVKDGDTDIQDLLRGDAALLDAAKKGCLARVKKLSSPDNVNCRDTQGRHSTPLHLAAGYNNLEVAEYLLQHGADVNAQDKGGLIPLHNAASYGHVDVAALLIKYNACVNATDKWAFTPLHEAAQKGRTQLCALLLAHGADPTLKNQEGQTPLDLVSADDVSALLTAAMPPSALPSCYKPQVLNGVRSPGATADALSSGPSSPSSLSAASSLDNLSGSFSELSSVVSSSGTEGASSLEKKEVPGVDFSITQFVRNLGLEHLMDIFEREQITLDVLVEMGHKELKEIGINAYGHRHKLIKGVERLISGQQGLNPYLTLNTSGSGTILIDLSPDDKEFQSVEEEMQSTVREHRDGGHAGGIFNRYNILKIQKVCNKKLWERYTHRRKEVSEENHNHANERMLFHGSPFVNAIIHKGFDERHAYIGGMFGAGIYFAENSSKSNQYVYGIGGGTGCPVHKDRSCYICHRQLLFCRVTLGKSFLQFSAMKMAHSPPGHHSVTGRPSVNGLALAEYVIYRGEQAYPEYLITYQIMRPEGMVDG
T1 sequence (O95271 1024-1327): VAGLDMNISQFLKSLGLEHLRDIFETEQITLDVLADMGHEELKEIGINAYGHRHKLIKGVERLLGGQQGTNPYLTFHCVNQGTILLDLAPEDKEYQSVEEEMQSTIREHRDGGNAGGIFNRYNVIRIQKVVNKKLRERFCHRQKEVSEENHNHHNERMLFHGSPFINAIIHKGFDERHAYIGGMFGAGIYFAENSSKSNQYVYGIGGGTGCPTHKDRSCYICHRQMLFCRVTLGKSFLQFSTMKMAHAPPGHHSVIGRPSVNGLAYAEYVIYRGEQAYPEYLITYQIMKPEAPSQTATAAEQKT

Broadly, the IC50 is the midpoint of a concentration-inhibition curve. Take `CN1CCCc2c1nc(N1CCC3(CC1)C(=O)N(CC(N)=O)c1cc(F)cc(F)c13)[nH]c2=O` [Example 424, 2-[4,6-difluoro-1′-(8-methyl-4-oxo-3,4,5,6,7,8-hexahydropyrido [2,3-d]pyrimidin-2-yl)-2-oxospiro[indoline-3,4′-piperidin]-1(2H)-yl]acetamide]: the IC50 at tankyrase 1 (TNKS 1) (setting [2]) and on tankyrase 2 (TNKS 2) (setting [4]) was under 20 nM throughout. In addition, the GI50 in experiment [1] (setting [3]) fell in the range of 100 to 600 nM.
For `CN1CCCc2c1nc(N1CCC3(CC1)C(=O)N(CC(F)(F)F)c1cc(OCc4nnn[nH]4)cc(F)c13)[nH]c2=O` [Example 419, 6-[(1H-tetrazol-5-yl)methoxy]-4-fluoro-1′-(8-methyl-4-oxo-3,4,5,6,7,8-hexahydro-pyrido[2,3-d]pyrimidin-2-yl)-1-(2,2,2-trifluoro-ethyl)spiro[indoline-3,4′-piperidin]-2(1H)-one], the IC50 on tankyrase 1 (TNKS 1) (setting [2]) and at tankyrase 2 (TNKS 2) (setting [4]) was under 20 nM throughout. The GI50 in experiment [1] (setting [3]) was under 100 nM.
`CN(C)CCOc1ccc(F)c2c1N(C)C(=O)C21CCN(c2nc3c(c(=O)[nH]2)CCCN3C)CC1` [Example 401, 7-[2-(dimethylamino)ethoxy]-4-fluoro-1′-(4-hy-droxy-8-methyl-6,7-di-hydro-5H-pyrido[2,3-d]pyrimidin-2-yl)-1-methyl spiro[indole-3,4′-piperidin]-2-one]: the IC50 on tankyrase 1 (TNKS 1) (setting [2]) and at tankyrase 2 (TNKS 2) (setting [4]) was under 20 nM throughout. The GI50 in experiment [1] (setting [3]) was in the range of 100 to 600 nM.
Take `CN1CCCc2c1nc(N1CCC3(CC1)C(=O)N(C)c1ccccc13)[nH]c2=O` [Example 292, 1-methyl-1′-(8-methyl-4-oxo-3,4,5,6,7,8-hexa-hydropyrido-[2,3-d]-pyrimidin-2-yl)-spiro[indoline-3,4′-piperidine]-2-one]: the IC50 at tankyrase 1 (TNKS 1) (setting [5]) and on tankyrase 2 (TNKS 2) (setting [7]) was under 20 nM in each case. In addition, in experiment [1] (setting [6]), the GI50 was in the range of 100 to 600 nM.
As for `CN1C(=O)C2(CCN(c3nc4c(c(=O)[nH]3)CCCN4)CC2)c2c(Cl)ccc(OC3CCOC3)c21` (stereo not drawn) [Example 438, 4-chloro-1′-(4-oxo-3,4,5,6,7,8-hexahydro-pyrido[2,3-d]pyrimidin-2-yl)-1-methyl-7-(oxo-lan-3-yloxy)spiro [indole-3,4′-piperidine]-2-one], the IC50 at tankyrase 1 (TNKS 1) (setting [2]) and at tankyrase 2 (TNKS 2) (setting [4]) was under 20 nM each time. In addition, in experiment [1] (setting [3]), the GI50 was in the range of 600 to 1000 nM.
Turning to `O=c1[nH]c(N2CCC3(CC2)CN(Cc2ccncc2)c2cc(F)cc(F)c23)nc2c1CCCC2` [Example 254, 2-[4,6-difluoro-1-(pyridin-4-yl)methyl-spiro[indoline-3,4′-piperidin]-1′-yl]-5,6,7,8-tetrahydro-quinazolin-4(3H)-one], the half-maximal inhibitory concentration (IC50) at tankyrase 1 (TNKS 1) (setting [5]) and at tankyrase 2 (TNKS 2) (setting [7]) was under 20 nM each time. Besides, the GI50 in experiment [1] (setting [6]) was 100 to 600 nM.
Regarding `CN1CCCc2c1nc(N1CCC3(CC1)C(=O)N(C)c1cc(O)cc(F)c13)[nH]c2=O` [Example 354, 4-fluoro-6-hydroxy-1-methyl-1′-(8-methyl-4-oxo-3,4,5,6,7,8-hexahydropyrido [2,3-d]pyrimidin-2-yl) spiro[indoline-3,4′-piperidin]-2-one], the IC50 at tankyrase 1 (TNKS 1) (setting [5]) and on tankyrase 2 (TNKS 2) (setting [7]) was under 20 nM each time. Moreover, the GI50 in experiment [1] (setting [6]) fell in the range of 100 to 600 nM.
Turning to `CN1CCC(Oc2cc(F)c3c(c2)N(C)C(=O)C32CCN(c3nc4c(c(=O)[nH]3)CCCN4C)CC2)CC1` [Example 380, 4-fluoro-1-methyl-1′-(8-methyl-4-oxo-3,4,5,6,7,8-hexahydropyrido [2,3-d]pyrimidin-2-yl)-6-[(1-methylpiperidin-4-yl)oxy]spiro [indoline-3,4′-piperidin]-2-one], the IC50 at tankyrase 1 (TNKS 1) (setting [5]) and on tankyrase 2 (TNKS 2) (setting [7]) was under 20 nM each time. In addition, the GI50 in experiment [1] (setting [6]) lay within 600 to 1000 nM.
Turning to `[2H]C([2H])([2H])N1CCCc2c1nc(N1CCC3(CC1)C(=O)N(CCO)c1cc(F)cc(F)c13)[nH]c2=O` [Example 370, 4,6-difluoro-1-(2-hydroxyethyl)-1′-[8-(methyl-d3)-4-oxo-3,4,5,6,7,8-hexahydro-pyrido [2,3-d]pyrimidin-2-yl] spiro[in-doline-3,4′-piperidin]-2-one], the IC50 on tankyrase 1 (TNKS 1) (setting [5]) and on tankyrase 2 (TNKS 2) (setting [7]) was under 20 nM each time. Besides, in experiment [1] (setting [6]), the GI50 lay within 100 to 600 nM.
On to `COCCN1C(=O)C2(CCN(c3nc4c(c(=O)[nH]3)CCCN4C)CC2)c2c(F)cc(OCCN(C)C)cc21` [Example 405], for which the IC50 at tankyrase 1 (TNKS 1) (setting [2]) and on tankyrase 2 (TNKS 2) (setting [4]) was under 20 nM throughout. Besides, in experiment [1] (setting [3]), the GI50 fell in the range of 600 to 1000 nM.
Regarding `CN1CCCc2c1nc(N1CCC3(CC1)C(=O)N(C)c1cc(N4CCC(S(C)(=O)=O)CC4)cc(F)c13)[nH]c2=O` [Example 464, 4-fluoro-1-methyl-1′-(8-methyl-4-oxo-3,4,5,6,7,8-hexahydropyrido[2,3-d]pyrimidin-2-yl)l-6-(4-methylsulfonylpiperidin-1-yl)spiro[indole-3,4′-piperidine]-2(1H)-one], the IC50 on tankyrase 1 (TNKS 1) (setting [2]) and at tankyrase 2 (TNKS 2) (setting [4]) was under 20 nM in each case. Besides, the GI50 in experiment [1] (setting [3]) is 100 to 600 nM.
For the molecule `CN1CCCc2c1nc(N1CCC3(CC1)C(=O)N(C)c1c(OCCNC(C)(C)C)ccc(F)c13)[nH]c2=O` [Example 437, 7-[2-(tert-butylamino)ethoxy]-4-fluoro-1′-(4-hydroxy-8-methyl-6,7-dihydro-5H-pyrido [2,3-d]pyrimidin-2-yl)-1-methylspiro[indole-3,4′-piperidine]-2-one], the concentration for half-maximal inhibition (IC50) at tankyrase 1 (TNKS 1) (setting [2]) and on tankyrase 2 (TNKS 2) (setting [4]) was 20 to 200 nM throughout. Further, in experiment [1] (setting [3]), the GI50 fell in the range of 100 to 600 nM.
For the molecule `CN1CCCc2c1nc(N1CCC3(CC1)C(=O)N(C)c1cc(OCCN4CCOCC4)cc(Cl)c13)[nH]c2=O` [Example 377, 4-chloro-1-methyl-1′-(8-methyl-4-oxo-3,4,5,6,7,8-hexahydropy-rido[2,3-d]pyrimidin-2-yl)-6-(2-morpholino-ethoxy) spiro[indoline-3,4′-piperidin]-2-one], the IC50 at tankyrase 1 (TNKS 1) (setting [5]) and at tankyrase 2 (TNKS 2) (setting [7]) was under 20 nM each time. Besides, the GI50 in experiment [1] (setting [6]) was in the range of 100 to 600 nM.
Consider `O=C1N(CC(F)(F)F)c2cccc(F)c2C12CCN(c1nc3c(c(=O)[nH]1)CCCN3)CC2` [Example 451, 4-fluoro-1′-(4-hy-droxy-5,6,7,8-tetra-hydropyrido[2,3-d]pyrimidin-2-yl)-1-(2,2,2-trifluoro-ethyl)spiro[indole-3,4′-piperidine]-2-one], for which the IC50 on tankyrase 1 (TNKS 1) (setting [2]) and on tankyrase 2 (TNKS 2) (setting [4]) was under 20 nM each time. The GI50 in experiment [1] (setting [3]) lay within 100 to 600 nM.
As for `CN1CCCc2c1nc(N1CCC3(CC1)C(=O)N(CC(C)(C)O)c1cccc(F)c13)[nH]c2=O` [Example 447, 4-fluoro-1′-(4-hy-droxy-8-methyl-6,7-dihydro-5H-py-rido[2,3-d]pyrimidin-2-yl)-1-(2-hydroxy-2-methylpro-pyl)spiro[indole-3,4′-piperidine]-2-one], the IC50 on tankyrase 1 (TNKS 1) (setting [2]) and at tankyrase 2 (TNKS 2) (setting [4]) was under 20 nM throughout. Moreover, the GI50 in experiment [1] (setting [3]) was under 100 nM.
For the molecule `COc1ccc(Cl)c2c1N(CC(F)(F)F)C(=O)C21CCN(c2nc3c(c(=O)[nH]2)CCCN3)CC1` [Example 443, 4-chloro-1′-(4-hy-droxy-3,5,6,7,8-tetra-hydropyrido[2,3-d]pyrimidin-2-yl)-7-methoxy-1-(2,2,2-trifluoroeth-yl)spiro[indole-3,4′-piperidine]-2-one], the IC50 at tankyrase 1 (TNKS 1) (setting [2]) and at tankyrase 2 (TNKS 2) (setting [4]) was under 20 nM throughout. The GI50 in experiment [1] (setting [3]) is 600 to 1000 nM.
For `CN1CCCc2c1nc(N1CCC3(CC1)C(=O)N(C)c1cc(-c4nc(C(=O)N5CCOCC5)co4)cc(Cl)c13)[nH]c2=O` [Example 326, 4-chloro-6-[4-(morpholine-4-carbonyl)-oxazol-2-yl]-1-methyl-1′-(8-methyl-4-oxo-3,4,5,6,7,8-hexahydro-pyrido[2,3-d]-pyrimidin-2-yl)spino-[indoline-3,4′-piperidin]-2-one], the IC50 at tankyrase 1 (TNKS 1) (setting [5]) and on tankyrase 2 (TNKS 2) (setting [7]) was 20 to 200 nM throughout. Also, the GI50 in experiment [1] (setting [6]) is 600 to 1000 nM.
